The source made the active and inactive calls.
Assays:
Hexokinase-1 = target: T1, Hexokinase-1 (Homo sapiens, UniProt P19367); assay: HK1 enzyme activation by HKDC1 hits – biochemical, selectivity assay for HKDC1 activator project, dose response (AID 504762); type: functional
T1 sequence (P19367 whole entry): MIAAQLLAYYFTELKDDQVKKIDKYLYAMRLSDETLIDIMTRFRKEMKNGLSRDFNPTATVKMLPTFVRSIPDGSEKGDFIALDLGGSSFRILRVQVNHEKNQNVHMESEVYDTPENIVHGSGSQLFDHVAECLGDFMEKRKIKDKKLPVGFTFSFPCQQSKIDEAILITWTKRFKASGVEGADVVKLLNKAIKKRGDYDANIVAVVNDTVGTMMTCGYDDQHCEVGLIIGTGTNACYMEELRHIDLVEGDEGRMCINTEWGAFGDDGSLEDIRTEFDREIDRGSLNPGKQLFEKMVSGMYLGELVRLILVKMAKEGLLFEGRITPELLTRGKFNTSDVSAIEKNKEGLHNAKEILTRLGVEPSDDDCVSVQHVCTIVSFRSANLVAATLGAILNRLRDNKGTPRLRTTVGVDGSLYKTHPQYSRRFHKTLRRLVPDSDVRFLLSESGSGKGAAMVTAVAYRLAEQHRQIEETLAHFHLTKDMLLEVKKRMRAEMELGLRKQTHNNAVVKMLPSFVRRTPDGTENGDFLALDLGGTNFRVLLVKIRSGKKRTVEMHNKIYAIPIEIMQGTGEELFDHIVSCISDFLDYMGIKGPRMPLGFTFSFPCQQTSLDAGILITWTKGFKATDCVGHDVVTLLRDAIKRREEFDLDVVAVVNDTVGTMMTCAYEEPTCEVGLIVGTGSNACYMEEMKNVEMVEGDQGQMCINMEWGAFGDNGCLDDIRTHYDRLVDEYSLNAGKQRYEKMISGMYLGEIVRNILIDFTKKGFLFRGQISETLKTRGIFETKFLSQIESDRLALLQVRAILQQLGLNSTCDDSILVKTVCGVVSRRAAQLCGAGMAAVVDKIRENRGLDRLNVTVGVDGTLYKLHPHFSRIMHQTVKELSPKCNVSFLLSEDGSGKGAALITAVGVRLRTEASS

Hexokinase HKDC1 = target: T2, Hexokinase HKDC1 (Homo sapiens, UniProt Q2TB90); assay: activation of HKDC1 glucose phosphorylation – biochemical, W721R variant, dose response (AID 504730); type: functional
T2 sequence (Q2TB90 whole entry): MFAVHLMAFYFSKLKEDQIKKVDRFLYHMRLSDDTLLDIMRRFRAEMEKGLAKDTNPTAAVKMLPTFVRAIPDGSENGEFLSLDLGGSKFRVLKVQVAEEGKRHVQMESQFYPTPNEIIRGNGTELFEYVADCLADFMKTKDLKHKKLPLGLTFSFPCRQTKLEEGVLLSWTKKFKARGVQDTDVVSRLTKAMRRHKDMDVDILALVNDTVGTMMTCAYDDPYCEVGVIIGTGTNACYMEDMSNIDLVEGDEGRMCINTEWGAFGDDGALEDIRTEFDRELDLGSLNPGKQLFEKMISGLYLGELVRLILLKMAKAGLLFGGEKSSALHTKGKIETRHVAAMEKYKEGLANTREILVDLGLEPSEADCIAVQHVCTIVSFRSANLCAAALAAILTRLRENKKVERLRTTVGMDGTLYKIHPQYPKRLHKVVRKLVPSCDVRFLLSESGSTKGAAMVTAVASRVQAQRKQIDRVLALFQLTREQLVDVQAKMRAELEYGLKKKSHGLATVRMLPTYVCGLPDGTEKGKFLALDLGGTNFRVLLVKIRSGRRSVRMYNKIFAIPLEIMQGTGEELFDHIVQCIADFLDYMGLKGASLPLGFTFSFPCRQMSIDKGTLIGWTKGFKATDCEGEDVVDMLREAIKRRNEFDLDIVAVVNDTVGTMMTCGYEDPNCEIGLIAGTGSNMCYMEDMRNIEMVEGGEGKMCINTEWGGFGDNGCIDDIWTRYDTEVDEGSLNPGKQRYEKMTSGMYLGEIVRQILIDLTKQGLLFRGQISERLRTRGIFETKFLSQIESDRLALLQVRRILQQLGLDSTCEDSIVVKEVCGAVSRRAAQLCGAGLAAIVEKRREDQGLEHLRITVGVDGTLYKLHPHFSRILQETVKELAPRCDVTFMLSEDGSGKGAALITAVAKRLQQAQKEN

[1] = target: T3, Type-1 angiotensin II receptor (Homo sapiens, UniProt P30556); assay: agonist activity at AGTR1 – cell-based, uHTS hits, selectivity assay for APJ receptor agonist project, dose response (AID 488865); type: functional;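 further: beta-arrestin recruitment to AT1 measured by enzyme fragment complementation luminescence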
T3 sequence (P30556 whole entry): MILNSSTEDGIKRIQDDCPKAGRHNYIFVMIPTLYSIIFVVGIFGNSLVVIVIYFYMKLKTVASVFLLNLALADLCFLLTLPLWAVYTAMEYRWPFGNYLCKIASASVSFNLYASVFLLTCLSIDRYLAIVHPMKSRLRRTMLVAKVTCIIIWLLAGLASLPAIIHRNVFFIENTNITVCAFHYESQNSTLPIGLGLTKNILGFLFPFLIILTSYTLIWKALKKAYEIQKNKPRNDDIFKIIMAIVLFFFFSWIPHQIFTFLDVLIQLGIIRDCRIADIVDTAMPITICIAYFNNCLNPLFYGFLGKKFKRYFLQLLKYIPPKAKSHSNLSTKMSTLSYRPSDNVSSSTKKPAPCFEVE

[2] = target: T4, Corticotropin-releasing factor receptor 2/Corticotropin-releasing factor-binding protein (Homo sapiens, UniProt P24387+Q13324); assay: activators of CRF receptor 2 with binding protein – uHTS hits, confirmation (AID 602473); type: functional; settings: read-out: EC50_Mean
T4 sequence (Q13324 whole entry): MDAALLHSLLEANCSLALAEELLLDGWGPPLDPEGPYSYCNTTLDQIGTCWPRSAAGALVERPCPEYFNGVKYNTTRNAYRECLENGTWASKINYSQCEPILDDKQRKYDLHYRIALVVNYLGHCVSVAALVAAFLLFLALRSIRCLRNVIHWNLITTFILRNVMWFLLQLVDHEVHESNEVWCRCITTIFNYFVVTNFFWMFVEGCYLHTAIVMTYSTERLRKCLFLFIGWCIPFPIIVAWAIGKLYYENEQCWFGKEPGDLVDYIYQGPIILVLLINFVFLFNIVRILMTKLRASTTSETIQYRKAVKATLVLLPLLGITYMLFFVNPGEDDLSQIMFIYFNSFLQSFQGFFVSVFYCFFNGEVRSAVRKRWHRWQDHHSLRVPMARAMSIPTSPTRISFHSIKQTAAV
T4 sequence (P24387 whole entry): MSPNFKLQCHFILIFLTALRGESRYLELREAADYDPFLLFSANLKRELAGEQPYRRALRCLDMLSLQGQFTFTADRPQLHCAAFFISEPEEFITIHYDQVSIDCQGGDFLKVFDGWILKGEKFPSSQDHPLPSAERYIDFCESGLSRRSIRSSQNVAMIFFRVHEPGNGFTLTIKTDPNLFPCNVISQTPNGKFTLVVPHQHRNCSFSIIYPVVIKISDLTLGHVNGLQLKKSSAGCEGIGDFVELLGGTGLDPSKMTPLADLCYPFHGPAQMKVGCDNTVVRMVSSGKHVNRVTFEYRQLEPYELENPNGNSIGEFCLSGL

[3] = target: T5, Short transient receptor potential channel 4 (Mus musculus, UniProt Q9QUQ5); assay: calcium entry via TRPC4 opening agents – cell-based, HEK293 TRPC4/mu-opioid, Fluo-4 calcium, dose response (AID 434937); type: functional
T5 sequence (Q9QUQ5 whole entry): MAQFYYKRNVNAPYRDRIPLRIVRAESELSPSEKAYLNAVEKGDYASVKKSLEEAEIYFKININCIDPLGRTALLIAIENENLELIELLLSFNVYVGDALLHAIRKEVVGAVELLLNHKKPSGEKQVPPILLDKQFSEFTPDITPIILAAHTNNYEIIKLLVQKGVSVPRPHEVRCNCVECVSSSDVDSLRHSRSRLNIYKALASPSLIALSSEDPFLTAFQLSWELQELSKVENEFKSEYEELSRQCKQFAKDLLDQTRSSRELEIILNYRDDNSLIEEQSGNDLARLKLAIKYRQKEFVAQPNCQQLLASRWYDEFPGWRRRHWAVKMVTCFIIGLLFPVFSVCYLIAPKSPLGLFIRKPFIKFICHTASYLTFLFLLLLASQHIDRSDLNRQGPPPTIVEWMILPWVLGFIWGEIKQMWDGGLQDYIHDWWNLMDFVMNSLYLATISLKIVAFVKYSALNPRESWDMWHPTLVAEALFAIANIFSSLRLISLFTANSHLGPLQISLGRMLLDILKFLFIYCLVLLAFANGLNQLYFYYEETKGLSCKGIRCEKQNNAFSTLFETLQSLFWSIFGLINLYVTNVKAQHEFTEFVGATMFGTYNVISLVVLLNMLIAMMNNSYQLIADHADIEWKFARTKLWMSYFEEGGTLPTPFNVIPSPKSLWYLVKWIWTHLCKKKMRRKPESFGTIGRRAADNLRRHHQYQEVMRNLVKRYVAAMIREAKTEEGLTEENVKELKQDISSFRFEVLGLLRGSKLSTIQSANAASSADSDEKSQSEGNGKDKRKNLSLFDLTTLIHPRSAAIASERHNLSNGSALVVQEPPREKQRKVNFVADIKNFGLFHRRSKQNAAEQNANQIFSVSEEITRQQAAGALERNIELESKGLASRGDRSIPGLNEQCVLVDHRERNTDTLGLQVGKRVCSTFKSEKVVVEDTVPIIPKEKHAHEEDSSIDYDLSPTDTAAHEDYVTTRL

Troponin, cardiac muscle = Troponin, cardiac muscle (Homo sapiens, UniProt P19429+P45379+P63316); assay: Fluorescence-based biochemical high throughput dose response assay for activators of the calcium sensitivity of cardiac Regulated Thin Filaments (RTF). [Related pubchem assays (depositor defined):AID493008, AID493018, AID504382, AID504383]; type: protein-complex assay
[4] = target: T6, Endoribonuclease toxin MazF (Escherichia coli K-12, UniProt P0AE70); assay: substrate-only fluorescence increase artefacts – biochemical, single-stranded RNase substrate, counter-screen for MazEF activator project, dose response (AID 588502); type: functional
T6 sequence (P0AE70 whole entry): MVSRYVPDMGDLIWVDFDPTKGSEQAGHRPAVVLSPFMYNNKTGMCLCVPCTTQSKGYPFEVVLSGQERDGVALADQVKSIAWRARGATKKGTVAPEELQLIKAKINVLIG

[5] = target: T6, Endoribonuclease toxin MazF; assay: activation of MazEF endoribonuclease cleavage – biochemical, fluorescence, single-stranded RNA substrate, uHTS hits, dose response (AID 588481); type: functional
Exodeoxyribonuclease V = Exodeoxyribonuclease V (Escherichia coli (strain K12), UniProt P04993+P07648+P08394); assay: RecBCD inhibition via phage-restricted bacterial growth – absorbance, V66 E. coli, mutant T4 phage, counter-screen for AddAB inhibitor project, dose response (AID 492957); type: functional, cell-based, Escherichia coli str. K-12 substr. MG1655
[6] = HepG2 cell cytotoxicity, dose response, cytotoxicity control for non-replicating M. tuberculosis project (AID 489018); type: functional; settings: Mycobacterium tuberculosis
[7] = test system: Streptococcus sp. 'group A'; assay: Streptococcus pyogenes SK(-)GAS viability under kanamycin – luminescence, BacTiterGlo, confirmation, counter-screen for streptokinase expression inhibitor project, dose response (AID 1900); type: functional, organism-based
[8] = Vero E6 cell cytotoxicity, dose response, cytotoxicity control for non-replicating M. tuberculosis project, secondary assay (AID 492998); type: functional, VeroE6; settings: Vero C1008
cells [9] = type: functional, cell-based
[10] = THP-1 cell cytotoxicity, dose response, cytotoxicity control for non-replicating M. tuberculosis project (AID 489025); type: functional
cells [11] = type: functional, cell-based; remark: listed apart in the source
[12] = HEK-293T viability loss after treatment – luminescence, T-cell screen hits, cytotoxicity control for TCR NF-kB inhibitor project, dose response (AID 489026); type: functional, cell-based;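 further: cells exposed to compound about 14 hours before the viability readout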
HEK293 = assay: EBV LMP1 TES2 canonical NF-kB signalling blockers – cell-based, HEK293, luciferase, cherry-pick, dose response (AID 588343); type: functional; settings: Homo sapiens
INS1 = assay: INS-1E survival protection against cytokine death – cell-based, luminescence, retest, dose response (AID 449756); type: functional; settings: Rattus norvegicus;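 further: cell death triggered by IL-1 beta plus TNF-alpha plus IFN-gamma mixture; protective hits raise ATP signal compared with cytokine alone wells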
Streptococcus = assay: GAS UMAA2166 growth inhibition – luminescence, BacTiterGlo, counter-screen for streptokinase expression inhibitor project, dose response (AID 1915); type: functional, organism-based;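 further: potency for reduction of bacterial viability or growth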
[13] = Luminescence-based counterscreen assay for KLF5 inhibitors: dose response cell-based high throughput screening assay to identify cytotoxic compounds using the IEC-6 intestinal epithelial cell line. [Related pubchem assays: 1700 (Primary screen.), 1834 (Confirmation screen.), 1858 (Summary AID.), 1905 (Counterscreen.)]; type: functional
[14] = Counterscreen for AddAB inhibitors: absorbance-based bacterial cell-based high throughput dose response assay for inhibitors of bacterial viability. [Related pubchem assays (depositor defined):AID435030, AID449728, AID449731, AID488942, AID488955, AID488956]; type: functional

Chain of Exodeoxyribonuclease V (P04993 whole entry): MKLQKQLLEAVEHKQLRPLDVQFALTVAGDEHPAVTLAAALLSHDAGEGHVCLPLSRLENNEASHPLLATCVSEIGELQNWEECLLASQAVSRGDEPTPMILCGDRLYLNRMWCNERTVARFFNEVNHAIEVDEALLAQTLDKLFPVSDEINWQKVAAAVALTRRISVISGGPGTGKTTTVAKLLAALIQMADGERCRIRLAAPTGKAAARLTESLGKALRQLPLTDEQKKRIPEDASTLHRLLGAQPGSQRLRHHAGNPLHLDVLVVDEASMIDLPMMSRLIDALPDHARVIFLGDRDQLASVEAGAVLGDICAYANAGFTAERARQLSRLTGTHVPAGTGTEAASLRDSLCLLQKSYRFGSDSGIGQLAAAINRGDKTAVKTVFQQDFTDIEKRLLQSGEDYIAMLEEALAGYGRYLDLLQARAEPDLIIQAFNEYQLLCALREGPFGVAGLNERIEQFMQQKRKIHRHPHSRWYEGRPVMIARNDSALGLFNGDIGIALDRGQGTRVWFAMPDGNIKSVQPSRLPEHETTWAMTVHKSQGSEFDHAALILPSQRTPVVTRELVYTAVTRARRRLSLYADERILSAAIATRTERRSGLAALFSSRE
Chain of Exodeoxyribonuclease V (P07648 whole entry): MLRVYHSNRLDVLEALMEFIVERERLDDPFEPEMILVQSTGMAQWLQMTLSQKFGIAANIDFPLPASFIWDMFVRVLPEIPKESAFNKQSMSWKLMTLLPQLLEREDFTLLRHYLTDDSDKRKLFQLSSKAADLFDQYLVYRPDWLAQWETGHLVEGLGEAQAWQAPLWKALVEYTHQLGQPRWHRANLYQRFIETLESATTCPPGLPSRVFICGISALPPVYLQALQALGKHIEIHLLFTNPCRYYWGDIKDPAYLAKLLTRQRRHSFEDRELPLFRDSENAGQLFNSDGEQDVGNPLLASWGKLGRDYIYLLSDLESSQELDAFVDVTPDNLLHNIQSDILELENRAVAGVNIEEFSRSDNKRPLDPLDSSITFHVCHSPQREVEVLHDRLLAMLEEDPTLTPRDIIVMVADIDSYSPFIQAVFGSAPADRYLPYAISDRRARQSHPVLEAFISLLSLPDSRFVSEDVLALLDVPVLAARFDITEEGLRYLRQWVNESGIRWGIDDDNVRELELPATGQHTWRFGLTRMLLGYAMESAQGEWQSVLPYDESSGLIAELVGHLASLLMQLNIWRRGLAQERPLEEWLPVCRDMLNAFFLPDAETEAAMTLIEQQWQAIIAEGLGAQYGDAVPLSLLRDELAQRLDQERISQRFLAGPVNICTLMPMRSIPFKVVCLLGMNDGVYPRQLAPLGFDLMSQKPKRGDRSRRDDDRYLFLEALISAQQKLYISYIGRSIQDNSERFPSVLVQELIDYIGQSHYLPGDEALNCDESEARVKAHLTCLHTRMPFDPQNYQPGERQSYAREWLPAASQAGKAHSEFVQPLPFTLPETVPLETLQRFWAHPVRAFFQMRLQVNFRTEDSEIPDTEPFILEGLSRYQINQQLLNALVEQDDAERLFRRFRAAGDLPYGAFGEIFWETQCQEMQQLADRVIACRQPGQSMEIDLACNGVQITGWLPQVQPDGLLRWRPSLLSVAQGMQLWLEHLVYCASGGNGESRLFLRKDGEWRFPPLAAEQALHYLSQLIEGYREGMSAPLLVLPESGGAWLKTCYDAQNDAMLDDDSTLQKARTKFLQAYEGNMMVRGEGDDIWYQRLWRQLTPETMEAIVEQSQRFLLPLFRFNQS
Chain of Exodeoxyribonuclease V (P08394 whole entry): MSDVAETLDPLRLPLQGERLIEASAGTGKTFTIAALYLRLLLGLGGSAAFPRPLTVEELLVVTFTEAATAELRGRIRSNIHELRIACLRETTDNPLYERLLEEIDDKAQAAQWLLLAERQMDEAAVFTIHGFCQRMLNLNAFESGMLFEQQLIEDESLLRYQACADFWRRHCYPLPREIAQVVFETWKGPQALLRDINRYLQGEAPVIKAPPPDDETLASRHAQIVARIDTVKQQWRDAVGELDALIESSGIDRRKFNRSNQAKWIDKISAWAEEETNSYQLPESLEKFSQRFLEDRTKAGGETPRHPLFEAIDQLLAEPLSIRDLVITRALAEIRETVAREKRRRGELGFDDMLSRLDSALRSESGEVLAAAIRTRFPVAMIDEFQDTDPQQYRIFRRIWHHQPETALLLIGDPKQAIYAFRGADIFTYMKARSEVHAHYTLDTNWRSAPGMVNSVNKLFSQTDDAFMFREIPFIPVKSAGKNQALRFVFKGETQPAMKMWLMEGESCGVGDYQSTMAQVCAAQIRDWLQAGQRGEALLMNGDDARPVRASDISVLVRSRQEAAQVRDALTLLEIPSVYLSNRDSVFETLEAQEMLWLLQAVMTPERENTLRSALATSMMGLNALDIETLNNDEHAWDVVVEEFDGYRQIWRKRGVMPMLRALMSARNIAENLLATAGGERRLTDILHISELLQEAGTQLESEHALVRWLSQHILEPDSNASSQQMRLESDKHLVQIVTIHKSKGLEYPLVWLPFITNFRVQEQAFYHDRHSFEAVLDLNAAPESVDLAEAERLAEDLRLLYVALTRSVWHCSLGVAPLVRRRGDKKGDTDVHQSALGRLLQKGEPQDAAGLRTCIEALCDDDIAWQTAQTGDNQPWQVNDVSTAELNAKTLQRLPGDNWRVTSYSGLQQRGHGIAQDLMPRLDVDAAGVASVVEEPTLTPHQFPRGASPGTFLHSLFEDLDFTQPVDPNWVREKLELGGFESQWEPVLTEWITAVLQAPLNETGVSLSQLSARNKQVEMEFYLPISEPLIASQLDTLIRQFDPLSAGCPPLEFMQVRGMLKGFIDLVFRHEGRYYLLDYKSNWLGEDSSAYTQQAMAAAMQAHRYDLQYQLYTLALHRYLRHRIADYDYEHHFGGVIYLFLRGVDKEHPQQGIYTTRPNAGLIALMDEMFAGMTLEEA

COC(=O)Cn1c2ccc(F)cc2c2nc(C)sc21
EC50 (Hexokinase-1): 8.1 µM (active) | EC50 (Hexokinase HKDC1): 8.74 µM (active)

C=CCSc1nc(=O)c(CC)c(O)n1C(C)CC (stereo unspecified)
EC50 [1]: > 100 µM (inactive)

CCC1(c2ccc(F)cc2)NC(=O)N(CC(=O)c2cc(C)n(C3CC3)c2C)C1=O (stereo unspecified)
EC50 [2]: 4.88 µM (active) | EC50 [3]: 5.96 µM (active)

O=[N+]([O-])c1ccc(NN=Cc2cccc3ccccc23)nc1
EC50 (Troponin, cardiac muscle): 26.6 µM (inactive) | EC50 [4]: 45.4 µM (inactive) | EC50 [5]: > 99 µM (inactive)

O=C(N/N=C/c1c(O)ccc2ccccc12)c1ccc(Br)o1
IC50 (Exodeoxyribonuclease V): > 119 µM (inactive) | CC50 [6]: 5.73 µM (active) | EC50 [7]: 0.982 µM (active) | CC50 [8]: 2.71 µM (active) | EC50 (cells [9]): > 350 µM (not active) | CC50 [10]: 0.493 µM (active) | EC50 (cells [11]): 37.3 µM (active) | IC50 [12]: > 80 µM (inactive) | AC50 (HEK293): 6.22 µM (active) | AC50 (INS1): 0.779 µM (active) | EC50 (Streptococcus): 2.83 µM (active) | IC50 [13]: 9.35 µM (active) | IC50 [14]: > 119 µM (inactive)

From ChEMBL document CHEMBL1201862, “PubChem BioAssay data set” (2004)
